Experimental findings from patent US11998610B2, “Conjugates and methods of using the same” (Flagship Pioneering Innovations V, Inc., priority 2018, dated 2024) are described below.

For one experiment, the system named is E. coli BL21(DE3). Nature of the experiment: Cell-based assay with ClbP with LCMS, ClbP negative strain. To be noted: 10 μM compound, 37° C., 20 h. In outline: (§1)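 Compound (10 μM final) incubated 20 h at 37° C, aerobically, with 1:40-diluted overnight cultures of ClbP-positive E. coli or negative BL21(DE3), in duplicate, alongside uninoculated LB. Remaining parent quantified by LC-MS/MS (MRM) after acetonitrile quench, expressed as percent of media-alone.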

For a further experiment, the system named is WT ClbP. Nature of the experiment: Assay with purified ClbP protein (LCMS). The format is biochemical, E. coli. To be noted: 20 μM WT ClbP, room temperature, 24 h. As to the method: This example is representative of the method described in Example 91 the soluble peptidase domain (amino acids 38 to 375) of ClbP or the catalytically inert mutant S95A was cloned into pET28a using previously defined boundaries as a starting point (Brotherton, J. Am. Chem. Soc., 135:3359-3362, 2013).
WT ClbP or S95A ClbP was isolated as an N-terminally tagged HiS6-SUMO1-fusion protein from […] using E. coli BL21(DE3)RIPL to express the protein. The cells were lysed in 30 mM Tris pH 8.0, 300 mM NaCl, 10% (v/v) glycerol, benzonase (Sigma-Millipore), lysozyme, B-per (ThermoFisher), and Y-per (ThermoFisher). The lysate was clarified via centrifugation (13,000 g, 20 min), and the supernatant was incubated with HiBond Ni-NTA agarose (5 mL). The resin was subsequently washed with wash buffer (30 mM Tris pH 7.5, 250 mM NaCl, 10 mM imidazole, 3% (v/v) glycerol, and 2 mM TCEP). The resin was incubated at 30° C. for 1 h with 1.4 mg ULP1 protease. The resin was then washed with an additional fraction of wash buffer. Centrifuge filtration was used to concentrate the protein, and the concentrated protein was subsequently applied to a 16/600 Superdex 200 size exclusion column with an isocratic elution of 25 mM HEPES, 25 mM Tris pH 7.4, 325 mM NaCl, 10 mM KCl and 3% (v/v) glycerol at a flow rate of […]. The fractions containing the protein were determined by SDS-PAGE, combined, and concentrated by centrifuge filtration. 3 mM TCEP was added to the concentrated protein, which was then aliquoted, flash frozen in liquid N2, and stored at −80° C.
This example is representative of the method described in Example D, ClbP was incubated with test compounds in an in vitro assay. In a typical assay, 0, 1, or 20 μM purified WT or S95A ClbP was incubated with 100 or 500 μM compound in reaction buffer (50 mM Tris-HCl pH 7.5, 37.5 mM NaCl) at room temperature for 24 h. The total volume of this reaction was 150 μL.
After 24 h, 2 volumes of acetonitrile (300 μL) were added to the reaction to quench the solution.
The reaction was centrifuged (4,000 g, 15 min), and then the supernatant was analyzed by LCMS. 5 μL of the supernatant was injected onto an Acquity UPLC BEH C18 1.7 μm 2.1×100 column. Buffer A was 0.1% (v/v) formic acid in water and buffer B was 0.1% (v/v) formic acid in acetonitrile. The flow rate was 0.5 mL/min. The initial % B was 10, which was held for 30 s then ramped up to 90% B over 3 min, held at 90% B for 1 min, ramped down to 10% B over 15 s, and then held at 10% B for 15 s. The UV-Vis spectrum from 210-400 nm was monitored with 3.6 nm resolution. Positive and negative mode ESI were monitored from 100-1000 m/z with a 20 V cone voltage at 5 Hz sampling frequency in centroid collection.
The relative starting material remaining in the WT ClbP reaction was determined by LCMS and then compared to the residual starting material in the no-enzyme and catalytically inert enzyme (S95A ClbP) reactions. In an ideal case, the amount of residual starting material in the WT ClbP reaction was <25% of the amount in the S95A ClbP and no-enzyme conditions. In an acceptable case, the amount of residual starting material in the WT ClbP reaction was 25-75% of the amount in the S95A ClbP and no-enzyme conditions. In a non-preferred case, the amount of residual starting material in the WT ClbP reaction was >75% of the amount in the S95A ClbP and no-enzyme conditions.
Formation of the anticipated product was likewise quantified by LCMS analysis and confirmed by coelution with an external product standard. In an ideal case, the amount of product formed in the WT ClbP reaction corresponded to >75% of the theoretical maximum. In an acceptable case, the amount of product formed in the WT ClbP reaction corresponded to 25-75% of the theoretical maximum. In a non-preferred case, the amount of product formed in the WT ClbP reaction corresponded to <25% of the theoretical maximum.

Experiment [1] has as its system E. coli CFT073 ATCC 700928 and/or E. coli Nissle 1917. Put plainly: Cell-based assay with ClbP with LCMS, ClbP positive strain. Conditions: ClbP-encoding E. coli, 10 μM compound, 37° C., 20 h. The procedure, abridged:
as §1

Molecules are shown by their SMILES. Non-standard residues stand in square brackets, D forms with d. Residues, ends and D or L forms follow the SMILES beside them. *: point of attachment. Octanoyl = CCCCCCCC(=O)*

Turning to `CCCCCCCC(=O)N[C@H](CCCNC(=N)N)C(=O)N[C@@H](C)C(=O)OC` [Example 11, Methyl octanoyl-D-arginyl-L-alaninate] (Octanoyl-[dR]-Ala-OMe), in the experiment on E. coli BL21(DE3), the “% Remaining in ClbP Negative Relative to Media-Only” value was “− (>75% compound remaining in the 20 μM WT ClbP reaction relative to the no-enzyme control)”. Besides, the “Status (compound remaining in WT ClbP reaction relative to no-enzyme control)” value in the experiment on WT ClbP (500 μM compound) was “− (>75% compound remaining in the 20 μM WT ClbP reaction relative to the no-enzyme control)”. For the same compound, the “% Remaining in ClbP Positve Relative to Media-Only” value in experiment [1] is reported as “+ (between 25-75% compound remaining in the 20 μM WT ClbP reaction relative to the no-enzyme control)”.

With `COC(=O)[C@H](C)NC(=O)[C@@H](CC(N)=O)NC(=O)[C@@H](C)c1ccc2cc(OC)ccc2c1` [Example 18, Methyl ((S)-2-(6-methoxynaphthalen-2-yl)propanoyl)-D-asparaginyl-L-alaninate], in the experiment with E. coli BL21(DE3), the “% Remaining in ClbP Negative Relative to Media-Only” value is “+ (between 25-75% compound remaining in the 20 μM WT ClbP reaction relative to the no-enzyme control)”. The “Status (compound remaining in WT ClbP reaction relative to no-enzyme control)” value with WT ClbP (100 μM compound) was “++ (<25% compound remaining in the 20 μM WT ClbP reaction relative to the control)”. The “% Remaining in ClbP Positve Relative to Media-Only” value in experiment [1] is “+ (between 25-75% compound remaining in the 20 μM WT ClbP reaction relative to the no-enzyme control)”.

Consider `CCCCCCCCCCCCCC(=O)N[C@H](CC(N)=O)C(=O)NCCCC(=O)OC` [Example 20, Methyl (R)-4-(4-amino-4-oxo-2-tetradecanamidobutanamido)butanoate], for which, in the experiment on E. coli BL21(DE3), the “% Remaining in ClbP Negative Relative to Media-Only” value is on record as “− (>75% compound remaining in the 20 μM WT ClbP reaction relative to the no-enzyme control)”. Also, the “Status (compound remaining in WT ClbP reaction relative to no-enzyme control)” value in the experiment with WT ClbP (100 μM compound) is “− (>75% compound remaining in the 20 μM WT ClbP reaction relative to the no-enzyme control)”. Also, the “% Remaining in ClbP Positve Relative to Media-Only” value in experiment [1] is “+ (between 25-75% compound remaining in the 20 μM WT ClbP reaction relative to the no-enzyme control)”.

In the case of `CCCCCCCCCCCCCC(=O)N[C@H](CC(N)=O)C(=O)N[C@@H](C)CCC(=O)OC` [Example 21, Methyl (S)-4-((R)-4-amino-4-oxo-2-tetradecanamidobutanamido)pentanoate], the “% Remaining in ClbP Negative Relative to Media-Only” value in the experiment with E. coli BL21(DE3) is “− (>75% compound remaining in the 20 μM WT ClbP reaction relative to the no-enzyme control)”. For the same compound, the “Status (compound remaining in WT ClbP reaction relative to no-enzyme control)” value in the experiment with WT ClbP (100 μM compound) was “+ (between 25-75% compound remaining in the 20 μM WT ClbP reaction relative to the no-enzyme control)”. The “% Remaining in ClbP Positve Relative to Media-Only” value in experiment [1] is recorded as “+ (between 25-75% compound remaining in the 20 μM WT ClbP reaction relative to the no-enzyme control)”.

For `CCCCCCCCCCCCCC(=O)N[C@H](CC(N)=O)C(=O)Nc1ccc(COC)cc1` [Example 22, (R)—N1-(4-(methoxymethyl)phenyl)-2-tetradecanamidosuccinamide], the “% Remaining in ClbP Negative Relative to Media-Only” value in the experiment with E. coli BL21(DE3) is “− (>75% compound remaining in the 20 μM WT ClbP reaction relative to the no-enzyme control)”. Also, the “Status (compound remaining in WT ClbP reaction relative to no-enzyme control)” value with WT ClbP (100 μM compound) is given as “+ (between 25-75% compound remaining in the 20 μM WT ClbP reaction relative to the no-enzyme control)”. The “% Remaining in ClbP Positve Relative to Media-Only” value in experiment [1] is “− (>75% compound remaining in the 20 μM WT ClbP reaction relative to the no-enzyme control)”.
